# Test results as given in PMC7914897, “Cytotoxic Potential of a-Azepano- and 3-Amino-3,4-SeCo-Triterpenoids” (International Journal of Molecular Sciences, 2021).
# Columns and labels:
# SK-MEL-5 (Melanoma) = experiment: NCI-60 screen (SRB, 48 h); details: Homo sapiens
# MDA-MB-435 (Melanoma) = experiment: NCI-60 screen (SRB, 48 h); type: cell-based
# EKVX (NSC lung cancer) = experiment: NCI-60 screen (SRB, 48 h); details: Homo sapiens
# SK-OV-3 (Ovarian cancer) = experiment: NCI-60 screen (SRB, 48 h); details: Homo sapiens
# [1] = system: NCI-H226 (NSC lung cancer); experiment: NCI-60 screen (SRB, 48 h); details: Homo sapiens
# COLO 205 (Colon cancer) = experiment: NCI-60 screen (SRB, 48 h); details: Homo sapiens
# [2] = system: NCI-H460 (NSC lung cancer); experiment: NCI-60 screen (SRB, 48 h); details: Homo sapiens
# OVCAR-3 (Ovarian cancer) = experiment: cells; details: Homo sapiens
# 786-0 (Renal cancer) = experiment: NCI-60 screen (SRB, 48 h); details: Homo sapiens
# [3] = system: MDA-MB-468 (Breast cancer); experiment: cells; details: Homo sapiens
# Melanoma subpanel = experiment: NCI-60 screen, subpanel; details: Homo sapiens
# MOLT-4 (Leukemia) = experiment: NCI-60 screen (SRB, 48 h); details: Homo sapiens
# U251 (CNS cancer) = experiment: NCI-60 screen (SRB, 48 h); details: Homo sapiens
# HCC-2998 (Colon cancer) = experiment: NCI-60 screen (SRB, 48 h); details: Homo sapiens
# MCF7 (Breast cancer) = experiment: NCI-60 screen (SRB, 48 h); details: Homo sapiens
# HOP-62 (NSC lung cancer) = experiment: NCI-60 screen (SRB, 48 h); details: Homo sapiens
# MALME-3M (Melanoma) = experiment: NCI-60 screen (SRB, 48 h); details: Homo sapiens
# RPMI-8226 (Leukemia) = experiment: NCI-60 screen (SRB, 48 h); details: Homo sapiens
# Leukemia subpanel = experiment: cells; details: Homo sapiens
# [4] = system: MDA-MB-31/ATCC (Breast cancer); experiment: NCI-60 screen (SRB, 48 h); details: Homo sapiens
# Renal Cancer subpanel = experiment: NCI-60 screen, subpanel; details: Homo sapiens
# SK-MEL-28 (Melanoma) = experiment: NCI-60 screen (SRB, 48 h); details: Homo sapiens
# Breast cancer subpanel = experiment: NCI-60 screen, subpanel; details: Homo sapiens
# Prostate cancer subpanel = experiment: NCI-60 screen, subpanel; details: Homo sapiens
# OVCAR-5 (Ovarian cancer) = experiment: NCI-60 screen (SRB, 48 h)
# SNB-19 (CNS cancer) = experiment: NCI-60 screen (SRB, 48 h); details: Homo sapiens
# SK-MEL-2 (Melanoma) = experiment: NCI-60 screen (SRB, 48 h); details: Homo sapiens
# SNB-75 (CNS cancer) = experiment: NCI-60 screen (SRB, 48 h)
# CCRF-CEM (Leukemia) = experiment: NCI-60 screen (SRB, 48 h); details: Homo sapiens
smiles,measurement,setting,value
"CC1(C)NCCC[C@]2(C)[C@H]3C=CC4=C5C[C@@](C)(CO)CC[C@]5(C)CC[C@@]4(C)[C@]3(C)CC[C@@H]12 [Compound 6, azepano-glycyrrhetol-diene]",GI50,SK-MEL-5 (Melanoma); SK-MEL-5,2.14 µM
same,IC (TGI),"SK-MEL-5 (Melanoma); SK-MEL-5, 48 h, read-out: TGI",4.94 µM
same,CC50,"SK-MEL-5 (Melanoma); SK-MEL-5, read-out: LC50",14 µM
same,GI50,"MDA-MB-435 (Melanoma); Homo sapiens, MDA-MB-435",3.76 µM
same,IC (TGI),"MDA-MB-435 (Melanoma); Homo sapiens, MDA-MB-435, 48 h, read-out: TGI",14 µM
same,CC50,"MDA-MB-435 (Melanoma); Homo sapiens, MDA-MB-435, read-out: LC50 (the source's name)",43 µM
same,Growth % of the Most Sensitive Cell Lines,"MDA-MB-435 (Melanoma); MDA-MB-435, 1 dose 10 µM",−95.56%
same,GI50,EKVX (NSC lung cancer),2.77 µM
same,IC (TGI),"EKVX (NSC lung cancer); 48 h, read-out: TGI",8.27 µM
same,CC50,EKVX (NSC lung cancer); read-out: LC50,38.4 µM
same,GI50,SK-OV-3 (Ovarian cancer); SK-OV-3,14.5 µM
same,IC (TGI),"SK-OV-3 (Ovarian cancer); SK-OV-3, 48 h, read-out: TGI",28.6 µM
same,CC50,"SK-OV-3 (Ovarian cancer); SK-OV-3, read-out: LC50",56.2 µM
same,GI50,[1]; NCI-H226,4 µM
same,IC (TGI),"[1]; NCI-H226, 48 h, read-out: TGI",16.9 µM
same,CC50,"[1]; NCI-H226, read-out: LC50",82.2 µM
same,GI50,COLO 205 (Colon cancer); COLO 205,3.63 µM
same,IC (TGI),"COLO 205 (Colon cancer); COLO 205, 48 h, read-out: TGI",13.9 µM
same,CC50,"COLO 205 (Colon cancer); COLO 205, read-out: LC50",43 µM
same,GI50,[2]; NCI-H460,4.17 µM
same,IC (TGI),"[2]; NCI-H460, 48 h, read-out: TGI",15.2 µM
same,CC50,"[2]; NCI-H460, read-out: LC50",46.2 µM
same,GI50,OVCAR-3 (Ovarian cancer); OVCAR-3,2.69 µM
same,IC (TGI),"OVCAR-3 (Ovarian cancer); OVCAR-3, 48 h, read-out: TGI",7.06 µM
same,CC50,"OVCAR-3 (Ovarian cancer); OVCAR-3, read-out: LC50",34.8 µM
same,GI50,786-0 (Renal cancer); 786-0,2.66 µM
same,IC (TGI),"786-0 (Renal cancer); 786-0, 48 h, read-out: TGI",8.59 µM
same,CC50,"786-0 (Renal cancer); 786-0, read-out: LC50",40.9 µM
same,GI50,[3]; MDA-MB-468,10.4 µM
same,IC (TGI),"[3]; MDA-MB-468, 48 h, read-out: TGI",24 µM
same,CC50,"[3]; MDA-MB-468, read-out: LC50",55.1 µM
same,IC (TGI),"Melanoma subpanel; 48 h, read-out: TGI MG_MID",11.9 µM
same,GI50,Melanoma subpanel; read-out: GI50 MG_MID,3.61 µM
same,CC50,Melanoma subpanel; read-out: LC50 MG_MID,36 µM
same,GI50,MOLT-4 (Leukemia); MOLT-4,2.46 µM
same,IC (TGI),"MOLT-4 (Leukemia); MOLT-4, 48 h, read-out: TGI",6.8 µM
same,CC50,"MOLT-4 (Leukemia); MOLT-4, read-out: LC50",38.2 µM
same,GI50,U251 (CNS cancer); U-251,4.17 µM
same,IC (TGI),"U251 (CNS cancer); U-251, 48 h, read-out: TGI",15.9 µM
same,CC50,"U251 (CNS cancer); U-251, read-out: LC50",45.5 µM
same,GI50,HCC-2998 (Colon cancer); HCC 2998,10.1 µM
same,IC (TGI),"HCC-2998 (Colon cancer); HCC 2998, 48 h, read-out: TGI",23 µM
same,CC50,"HCC-2998 (Colon cancer); HCC 2998, read-out: LC50",52.3 µM
same,GI50,MCF7 (Breast cancer); MCF7,3.14 µM
same,IC (TGI),"MCF7 (Breast cancer); MCF7, 48 h, read-out: TGI",14.5 µM
same,CC50,"MCF7 (Breast cancer); MCF7, read-out: LC50",46.7 µM
same,GI50,HOP-62 (NSC lung cancer); HOP-62,2.3 µM
same,IC (TGI),"HOP-62 (NSC lung cancer); HOP-62, 48 h, read-out: TGI",5.16 µM
same,CC50,"HOP-62 (NSC lung cancer); HOP-62, read-out: LC50",16.7 µM
same,GI50,MALME-3M (Melanoma),2.64 µM
same,IC (TGI),"MALME-3M (Melanoma); 48 h, read-out: TGI",8.01 µM
same,CC50,MALME-3M (Melanoma); read-out: LC50,32.5 µM
same,GI50,RPMI-8226 (Leukemia); RPMI-8226,3.91 µM
same,IC (TGI),"RPMI-8226 (Leukemia); RPMI-8226, 48 h, read-out: TGI",14.9 µM
same,CC50,"RPMI-8226 (Leukemia); RPMI-8226, read-out: LC50",52.9 µM
same,IC (TGI),"Leukemia subpanel; 48 h, read-out: TGI MG_MID",10.2 µM
same,GI50,Leukemia subpanel; read-out: GI50 MG_MID,3.02 µM
same,CC50,Leukemia subpanel; read-out: LC50 MG_MID,55.5 µM
same,GI50,[4],14.5 µM
same,IC (TGI),"[4]; 48 h, read-out: TGI",29.3 µM
same,CC50,[4]; read-out: LC50,59.2 µM
same,IC (TGI),"Renal Cancer subpanel; 48 h, read-out: TGI MG_MID",11.9 µM
same,GI50,Renal Cancer subpanel; read-out: GI50 MG_MID,4.01 µM
same,CC50,Renal Cancer subpanel; read-out: LC50 MG_MID,35.8 µM
same,GI50,SK-MEL-28 (Melanoma); SK-MEL-28,5.87 µM
same,IC (TGI),"SK-MEL-28 (Melanoma); SK-MEL-28, 48 h, read-out: TGI",18.4 µM
same,CC50,"SK-MEL-28 (Melanoma); SK-MEL-28, read-out: LC50",44 µM
same,IC (TGI),"Breast cancer subpanel; 48 h, read-out: TGI MG_MID",19.1 µM
same,GI50,Breast cancer subpanel; read-out: GI50 MG_MID,6.68 µM
same,CC50,Breast cancer subpanel; read-out: LC50 MG_MID,55.1 µM
same,IC (TGI),"Prostate cancer subpanel; 48 h, read-out: TGI MG_MID",8.66 µM
same,GI50,Prostate cancer subpanel; read-out: GI50 MG_MID,2.65 µM
same,CC50,Prostate cancer subpanel; read-out: LC50 MG_MID,26.2 µM
same,GI50,"OVCAR-5 (Ovarian cancer); Homo sapiens, OVCAR-5",1.24 µM
same,IC (TGI),"OVCAR-5 (Ovarian cancer); Homo sapiens, OVCAR-5, 48 h, read-out: TGI",25.3 µM
same,CC50,"OVCAR-5 (Ovarian cancer); Homo sapiens, OVCAR-5, read-out: LC50",51.6 µM
same,Growth % of the Most Sensitive Cell Lines,"OVCAR-5 (Ovarian cancer); OVCAR-5, 1 dose 10 µM",−98.74%
same,GI50,SNB-19 (CNS cancer); SNB-19,11.6 µM
same,IC (TGI),"SNB-19 (CNS cancer); SNB-19, 48 h, read-out: TGI",25.3 µM
same,CC50,"SNB-19 (CNS cancer); SNB-19, read-out: LC50",55.2 µM
same,GI50,SK-MEL-2 (Melanoma); SK-MEL-2,3.31 µM
same,IC (TGI),"SK-MEL-2 (Melanoma); SK-MEL-2, 48 h, read-out: TGI",12.2 µM
same,CC50,"SK-MEL-2 (Melanoma); SK-MEL-2, read-out: LC50",38.9 µM
same,GI50,"SNB-75 (CNS cancer); Homo sapiens, SNB-75",3.43 µM
same,IC (TGI),"SNB-75 (CNS cancer); Homo sapiens, SNB-75, 48 h, read-out: TGI",14.8 µM
same,CC50,"SNB-75 (CNS cancer); Homo sapiens, SNB-75, read-out: LC50",46.5 µM
same,Growth % of the Most Sensitive Cell Lines,"SNB-75 (CNS cancer); SNB-75, 1 dose 10 µM",−97.70%
same,GI50,CCRF-CEM (Leukemia),3.52 µM
same,IC (TGI),"CCRF-CEM (Leukemia); 48 h, read-out: TGI",14.5 µM
same,CC50,CCRF-CEM (Leukemia); read-out: LC50,65.3 µM
